Consider one molecule from the NIST ThermoML archive (doi:10.1016/j.jct.2014.04.003).

± gives the expanded uncertainty stated by the source.

A short description of the series: molar enthalpy of vaporization or sublimation. The note with it: 298.15 K; Liquid; Static calorimetry.

`Cc1ccc(C)n1C` [1,2,5-trimethylpyrrole]: the molar enthalpy came out at 50.7 ± 1.3 kJ/mol.
